Data as given in patent US5582981A, “Method for identifying an oligonucleotide aptamer specific for a target” (priority 1994, dated 1996).

Test system: thrombin
Experiment: clotting time for thrombin-catalyzed conversion of fibrinogen to fibrin
Assay type: biochemical
Conditions: thrombin 10 nM, 7 mer at 20 μM; thrombin alone 24 sec
Protocol: Clotting time for the thrombin-catalyzed conversion of fibrinogen (2.0 mg/ml in selection buffer) to fibrin at 37° C. was measured using a precision coagulation timer apparatus (Becton-Dickinson, Cat. nos. 64015, 64019, 64020). Thrombin (10 nM) incubated with fibrinogen alone clotted in 40 sec, thrombin incubated with fibrinogen and P1 nuclease (Boehringer-Mannheim, Indianapolis, Ind.) clotted in 39 sec, thrombin incubated with fibrinogen and aptamer clone #5 (200 nM) clotted in 115 sec, and thrombin incubated with fibrinogen, clone #5 (200 nM) and P1 nuclease clotted in 40 sec. All incubations were carried out at 37° C. using reagents prewarmed to 37° C. Aptamer DNA or, when present, P1 nuclease, was added to the fibrinogen solution prior to addition of thrombin.
Inhibition of thrombin activity was studied using a consensus-related sequence 7 mer, 5' GGTTGGG 3' (SEQ ID NO: 15), and a control 7 mer with the same base composition but different sequence (5' GGGGGTT 3') (SEQ ID NO: 16). Clotting times were measured using the timer apparatus as above. The thrombin clotting time in this experiment was 24 sec using thrombin alone (10 nM), 26 sec with thrombin and the control sequence at 20 μM and 38 sec with thrombin plus the consensus sequence at 20 μM, indicating specificity for thrombin inhibition at the level of the 7 mer.

## 5' GGGGGTT 3' (chemistry not given here) [SEQ ID NO: 16]
  thrombin clotting time: 26 s

## 5' GGTTGGG 3' (chemistry not given here) [SEQ ID NO: 15]
  thrombin clotting time: 38 s
